From patent publication US6756382B2, “Amide substituted imidazoquinolines” (3M Innovative Properties Company, priority 1999, dated 2004)

Assays:
[1] = tested on: tumor necrosis factor (α); assay: Cytokine induction in human cells: tumor necrosis factor (α) secreted by PBMCs, ELISA; assay type: cell-based; details: PBMC, incubated 18 to 24 hours, TNF determined by ELISA, read-out: Lowest Effective Concentration (μM) Tumor Necrosis Factor
Procedure, shortened: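 Human donor PBMCs at final 1.5-2×10^6 cells/mL in RPMI with 10% FBS incubated 18 to 24 h at 37° C. with serially diluted compound, DMSO at most 1% final. Supernatant TNF-α measured by ELISA; value is the lowest concentration inducing TNF.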

[2] = tested on: interferon (α); assay: Cytokine induction in human cells: interferon secreted by PBMCs, ELISA; assay type: cell-based; details: PBMC, incubated 18 to 24 hours, interferon determined by ELISA, read-out: Lowest Effective Concentration (μM) Interferon
Procedure, shortened: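 Human donor PBMCs at 1.5-2×10^6 cells/mL final in RPMI with 10% FBS, exposed to serially diluted compound (≤1% DMSO) for 18–24 h at 37 °C, 5% CO2. Supernatant interferon (α) measured by ELISA; value is lowest concentration inducing interferon.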

Work on Nc1nc2ccccc2c2c1ncn2CCCCNC(=O)[C@H]1C[C@@H]1c1ccccc1 (relative stereo) [Example 37, N^1-[4-(4-Amino-1H-imidazo[4,5-c]quinolin-1-yl)butyl]-(trans)-2-phenylcyclopropane-1-carboxamide] yielded a minimal effective concentration [1] greater than 30 µM, a melting point of 77 °C and a minimal effective concentration [2] of 0.37 µM.

With Nc1nc2ccccc2c2c1ncn2CCCCNC(=O)c1ccccc1 [Example 1, N^1-[4-(4-Amino-1H-imidazo[4,5-c]quinolin-1-yl)butyl]benzamide] the minimal effective concentration [1] was 10 µM, the melting point was 210 to 212 °C and the minimal effective concentration [2] was 0.37 µM.

CCCc1nc2c(N)nc3ccccc3c2n1CCCCNC(=O)c1ccccc1 [Example 3, N^1-[4-(4-Amino-2-propyl-1H-imidazo[4,5-c]quinolin-1-yl)butyl]benzamide] gave a minimal effective concentration [1] of 1.11 µM, a melting point of 173 to 174 °C and a minimal effective concentration [2] of 0.37 µM.

For Nc1nc2ccccc2c2c1ncn2CCCCNC(=O)c1ccc(CCl)cc1 [Example 7, N^1-[4-(4-Amino-1H-imidazo[4,5-c]quinolin-1-yl)butyl]-4-(chloromethyl)benzamide], the minimal effective concentration [1] was greater than 30 µM, the melting point was 240 to 300 °C (dec.) and the minimal effective concentration [2] was 1.11 µM.

Nc1nc2ccccc2c2c1ncn2CCCCNC(=O)c1ccc(Cn2c(N3CCCC3)nc3ccccc32)cc1 [Example 8, N^1-[4-(4-Amino-1H-imidazo[4,5-c]quinolin-1-yl)butyl]-4-[(2-tetrahydro-1H -1-pyrrolyl-1H-benzo[d]imidazol-1-yl)methyl]benzamide] gave a minimal effective concentration [1] greater than 30 µM, a melting point of 150 to 153 °C and a minimal effective concentration [2] of 0.04 µM.

Compound Cc1nc2c(N)nc3ccccc3c2n1CCCCCNC(=O)c1ccccc1 [Example 9, N^1-[5-(4-Amino-2-methyl-1H-imidazo[4,5-c]quinolin-1-yl)pentyl]benzamide] has a minimal effective concentration [1] of 3.33 µM, a melting point of 110 to 120 °C and a minimal effective concentration [2] of 0.37 µM.

In the case of Nc1nc2ccccc2c2c1ncn2CCCCNC(=O)c1ccc(N2CCOCC2)nc1 [Example 12, N^3-[4-(4-Amino-1H-imidazo[4,5-c]quinolin-1-yl)butyl]-6-morpholinonicotinamide], the minimal effective concentration [1] is reported as greater than 30 µM, the melting point is reported as 160 to 170 °C (dec.) and the minimal effective concentration [2] is reported as 3.33 µM.

In the case of Nc1nc2ccccc2c2c1ncn2CCNC(=O)c1ccccc1 [Example 13, N^1-[2-(4-Amino-1H-imidazo[4,5-c]quinolin-1-yl)ethyl]benzamide], the minimal effective concentration [1] is reported as 3.33 µM, the melting point is reported as 295 °C and the minimal effective concentration [2] is reported as 1.11 µM.

In the case of Nc1nc2ccccc2c2c1ncn2CCCCNC(=O)c1ccccc1Oc1ccccc1 [Example 14, N^1-[4-(4-Amino-1H-imidazo[4,5-c]quinolin-1-yl)butyl]-2-phenoxybenzamide], the minimal effective concentration [1] is reported as greater than 30 µM, the melting point is reported as 93 to 94 °C and the minimal effective concentration [2] is reported as 3.33 µM.

Nc1nc2ccccc2c2c1ncn2CCCCNC(=O)c1cccc(C(=O)c2ccccc2)c1 [Example 15, N^1-[4-(4-Amino-1H-imidazo[4,5-c]quinolin-1-yl)butyl]-3-benzoylbenzamide] showed a minimal effective concentration [1] greater than 30 µM, a melting point of 103 to 105 °C and a minimal effective concentration [2] of 3.33 µM.

For Nc1nc2ccccc2c2c1ncn2CCCCNC(=O)CCc1ccccc1 [Example 16, N^1-[4-(4-Amino-1H-imidazo[4,5-c]quinolin-1-yl)butyl]-3-phenylpropanamide], the minimal effective concentration [1] was 30 µM, the melting point was 148 to 150 °C and the minimal effective concentration [2] was 1.11 µM.

Nc1nc2ccccc2c2c1ncn2CCNC(=O)CCc1ccccc1 [Example 17, N^1-[2-(4-Amino-1H-imidazo[4,5-c]quinolin-1-yl)ethyl]-3-phenylpropanamide] showed a minimal effective concentration [1] of 10 µM, a melting point of 254 to 256 °C and a minimal effective concentration [2] of 3.33 µM.

Nc1nc2ccccc2c2c1ncn2CCCCNC(=O)COc1ccc(C(=O)c2ccccc2)cc1 [Example 18, N^1-[4-(4-Amino-1H-imidazo[4,5-c]quinolin-1-yl)butyl]-2-(4-benzoylphenoxy)acetamide] gave a minimal effective concentration [1] greater than 30 µM, a melting point of 73 to 98 °C and a minimal effective concentration [2] of 3.33 µM.

For Nc1nc2ccccc2c2c1ncn2CCCCNC(=O)CCCCOc1ccc2[nH]c(=O)[nH]c2c1 [Example 19, N-[4-Amino-1H-imidazo[4,5-c]quinolin-1-yl]butyl-5-[(2-oxo-2,3-dihydro-1H-benzo[d]imidazol-5-yl)oxy]pentamide], the minimal effective concentration [1] was greater than 30 µM, the melting point was 150 to 157 °C and the minimal effective concentration [2] was 10 µM.

Nc1nc2ccccc2c2c1ncn2CCCCNC(=O)c1ccc(C(=O)c2ccccc2)cc1 [Example 20, N^1-[4-(4-Amino-1H-imidazo[4,5-c]quinolin-1-yl)butyl]-4-benzoylbenzamide] showed a minimal effective concentration [1] greater than 30 µM, a melting point of 159 to 161 °C and a minimal effective concentration [2] of 3.33 µM.

With Nc1nc2ccccc2c2c1ncn2CCCCNC(=O)c1ccc2ncccc2c1 [Example 21, N^6-[4-(4-Amino-1H-imidazo[4,5-c]quinolin-1-yl)butyl]-6-quinolinecarboxamide] the minimal effective concentration [1] was 1.11 µM, the melting point was 122 to 127 °C and the minimal effective concentration [2] was 0.12 µM.

Compound Cc1nc2c(N)nc3ccccc3c2n1CCCNC(=O)c1ccccc1 [Example 22, N^1-[3-(4-Amino-2-methyl-1H-imidazo[4,5-c]quinolin-1-yl)propyl]benzamide] has a minimal effective concentration [1] of 10 µM, a melting point of 230 to 231.4 °C and a minimal effective concentration [2] of 0.37 µM.

For Nc1nc2ccccc2c2c1ncn2CCCCNC(=O)c1ccc(Oc2ccccc2)cc1 [Example 64, N^1-[4-(4-Amino-1H-imidazo[4,5-c]quinolin-1-yl)butyl]-4-phenoxybenzamide], the melting point was 90.5 to 91.5 °C.

COCCc1nc2c(N)nc3ccccc3c2n1CCCCNC(=O)c1cncc(C#Cc2ccccc2)c1 [Example 65, N^5-{4-[4-Amino-2-(2-methoxyethyl)-1H-imidazo[4,5-c]quinolin-1-yl]butyl}-5-(2-phenyl-1-ethynyl)nicotinamide] showed a melting point of 76 to 78 °C.

Compound Nc1nc2ccccc2c2c1nc(-c1ccccc1)n2CCCCNC(=O)c1cccnc1 [Example 66, N^3-[4-(4-Amino-2-phenyl-1H-imidazo[4,5-c]quinolin-1-yl)butyl]nicotinamide] has a melting point of 84.5 to 86.1 °C.

In the case of Nc1nc2ccccc2c2c1nc(-c1ccccc1)n2CCCCNC(=O)c1ccc2ccccc2n1 [Example 67, N^2-[4-(4-Amino-2-phenyl-1H-imidazo[4,5-c]quinolin-1-yl)butyl]-2-quinolinecarboxamide], the melting point is reported as 81.1 to 83.9 °C.

Compound Nc1nc2ccccc2c2c1nc(CCCOc1ccccc1)n2CCCNC(=O)c1ccc(Br)cc1 [Example 193, N-{3-[4-amino-2-(3-phenoxypropyl)-1H-imidazo[4,5-c]quinolin-1-yl]propyl}-4-bromobenzamide] has a melting point of 186.2 to 186.7 °C.

COCCc1nc2c(N)nc3c(c2n1CCCNC(=O)c1ccccc1)CCCC3 [Example 195, N-{3-[4-amino-2-(2-methoxyethyl)-6,7,8,9-tetrahydro-1H-imidazo[4,5-c]quinolin-1-yl]propyl}benzamide] gave a melting point of 167.8 to 169.6 °C.

In the case of CCc1nc2c(N)nc3ccccc3c2n1CCCCNC(=O)C1CCCC1 [Example 197, N-[4-(4-amino-2-ethyl-1H-imidazo[4,5-c]quinolin-1-yl)butyl]cyclopentanecarboxamide], the melting point is reported as 178.6 to 179.5 °C.

Compound Cc1nc2c(N)nc3ccccc3c2n1CCCCNC(=O)C1CCCCC1 [Example 198, N-[4-(4-amino-2-methyl-1H-imidazo[4,5-c]quinolin-1-yl)butyl]cyclohexanecarboxamide] has a melting point of 191.6 to 192.6 °C.

In the case of CCc1nc2c(N)nc3ccccc3c2n1CCCCNC(=O)C(C)C [Example 199, N-[4-(4-amino-2-ethyl-1H-imidazo[4,5-c]quinolin-1-yl)butyl]-2-methylpropanamide], the melting point is reported as 155.4 to 156.3 °C.

CCCC(=O)NCCCCn1c(CC)nc2c(N)nc3ccccc3c21 [Example 200, N-[4-(4-amino-2-ethyl-1H-imidazo[4,5-c]quinolin-1-yl)butyl]butanamide] gave a melting point of 147.7 to 148.8 °C.

In the case of Cc1nc2c(N)nc3ccccc3c2n1CCCCNC(=O)C1CCCC1 [Example 201, N-[4-(4-amino-2-methyl-1H-imidazo[4,5-c]quinolin-1-yl)butyl]cyclopentanecarboxamide], the melting point is reported as 168.6 to 169.8 °C.

Cc1nc2c(N)nc3ccccc3c2n1CCCCNC(=O)C(C)C [Example 202, N-[4-(4-amino-2-methyl-1H-imidazo[4,5-c]quinolin-1-yl)butyl]-2-methylpropanamide] showed a melting point of 159.7 to 160.7 °C.

In the case of CCCC(=O)NCCCCn1c(C)nc2c(N)nc3ccccc3c21 [Example 203, N-[4-(4-amino-2-methyl-1H-imidazo[4,5-c]quinolin-1-yl)butyl]butanamide], the melting point is reported as 169.4 to 170.5 °C.

With Cc1nc2c(N)nc3ccccc3c2n1CCCNC(=O)C1CCCCC1 [Example 205, N-[3-(4-amino-2-methyl-1H-imidazo[4,5-c]quinolin-1-yl)propyl]cyclohexanecarboxamide] the melting point was 234.4 to 235.4 °C.

With Cc1nc2c(N)nc3ccccc3c2n1CCCNC(=O)C(C)C [Example 207, N-[3-(4-amino-2-methyl-1H-imidazo[4,5-c]quinolin-1-yl)propyl]-2-methylpropanamide] the melting point was 239 to 240.1 °C.

CCCC(=O)NCCCn1c(C)nc2c(N)nc3ccccc3c21 [Example 208, N-[3-(4-amino-2-methyl-1H-imidazo[4,5-c]quinolin-1-yl)propyl]butanamide] showed a melting point of 221.8 to 223.3 °C.
